Results on 13 compounds are retold here after patent US20260022142A1, “MACROCYCLIC IMMUNOMODULATORS” (Bristol-Myers Squibb Company, priority 2022, published 2026).

Bridge positions count the residues as written; N and C are the ends. Square brackets hold non-standard residues; d marks the D form. Peptide text beside a SMILES is read from it. * marks the point of attachment. ξ: configuration not given here. Bip = N[C@@H](Cc1ccc(-c2ccccc2)cc1)C(=O)O; Phe(3-Me) = Cc1cccc(C[C@H](N)C(=O)O)c1; hArg = N=C(N)NCCCC[C@H](N)C(=O)O; 4Pal = N[C@@H](Cc1ccncc1)C(=O)O; Cha = N[C@@H](CC1CCCCC1)C(=O)O; Cit = NC(=O)NCCC[C@H](N)C(=O)O; Thr(3ξ) = CC(O)[C@H](N)C(=O)O; Carboxymethyl = O=C(O)C*; Orn = NCCC[C@H](N)C(=O)O; Aun = NCCCCCCCCCCC(=O)O; Dab = NCC[C@H](N)C(=O)O; Dap = NC[C@H](N)C(=O)O; AEEA = NCCOCCOCC(=O)O

This assay deals with T1, PD-1/PD-L1 interaction (PE-labeled human PD-L1-Ig binding to Jurkat cell line over-expressing human PD-1) (Homo sapiens, UniProt Q15116).
T1 construct: expressed in transfected cells; host or cells: Jurkat
T1 sequence (Q15116 25-288): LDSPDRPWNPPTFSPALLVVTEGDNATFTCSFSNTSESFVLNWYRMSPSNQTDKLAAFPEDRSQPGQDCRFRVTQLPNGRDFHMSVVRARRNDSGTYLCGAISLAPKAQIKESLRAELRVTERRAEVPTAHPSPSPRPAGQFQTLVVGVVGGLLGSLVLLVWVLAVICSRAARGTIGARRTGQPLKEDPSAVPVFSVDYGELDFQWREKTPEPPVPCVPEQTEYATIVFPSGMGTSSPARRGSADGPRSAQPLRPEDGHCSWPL
Briefly: Jurkat-PD-1 Cell Binding High-Content Screening Assay (CBA). It counts as cell-based. As to conditions: Jurkat cell line over-expressing human PD-1; PE-labeled PD-L1-Ig 20 nM final; read-out: Jurkat hPD1-PDL1 IC50. Summed up: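 Human PD-L1-Ig carrying a covalent PE label on its Ig tag serves as the probe, applied at 20 nM final to compound-treated (2 h, 37° C) Jurkat-hPD-1 cells in medium with 10% fetal calf serum. After one hour, fixation and nuclear staining precede high-content image analysis.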
One may read the IC50 as the point on the concentration scale where inhibition reaches its midpoint. As for `CC(C)C[C@H]1NC(=O)[C@H](CCCN)NC(=O)[C@H](C(C)C)NC(=O)[C@H](Cc2ccc(-c3ccccc3)cc2)NC(=O)[C@H](C(C)C)NC(=O)[C@H](Cc2c[nH]c3ccccc23)NC(=O)[C@H](CC(=O)O)NC(=O)[C@H](Cc2ccc(OCC(=O)O)cc2)NC(=O)[C@H](CCCNC(=N)N)NC(=O)CSC[C@@H](C(=O)N[C@@H](CCN)C(=O)NCCCCCCCCCCC(=O)O)NC(=O)[C@H](CCCN)NC(=O)[C@H](C(C)C)NC(=O)[C@H](CC2CCCCC2)NC(=O)[C@H](CCN)NC1=O` [Compound 3289] ({CH2CO}-RY(Carboxymethyl)DWV[Bip]V[Orn][dL][Dab][Cha]V[Orn]C[Dab][Aun]-OH; thioether N-14), the IC50 came to 0.013 µM. The value for `CC(C)C[C@H]1NC(=O)[C@H](CCCN)NC(=O)[C@H](C(C)C)NC(=O)[C@H](Cc2ccc(-c3ccccc3)cc2)NC(=O)[C@H](C(C)C)NC(=O)[C@H](Cc2c[nH]c3ccccc23)NC(=O)[C@H](CC(=O)O)NC(=O)[C@H](Cc2c[nH]cn2)NC(=O)[C@H](CCCNC(=N)N)NC(=O)CSC[C@@H](C(=O)N[C@@H](CCN)C(=O)NCCCCCCCCCCC(=O)O)NC(=O)[C@H](CCCCN)NC(=O)[C@H](C(C)C)NC(=O)[C@H](CC2CCCCC2)NC(=O)[C@H](CCN)NC1=O` [Compound 3290] ({CH2CO}-RHDWV[Bip]V[Orn][dL][Dab][Cha]VKC[Dab][Aun]-OH; thioether N-14) was 0.0395 µM; that for `Cc1cccc(C[C@@H]2NC(=O)[C@H](CC(=O)O)NC(=O)[C@H](Cc3ccc(OCC(=O)O)cc3)NC(=O)[C@H](CCCNC(=N)N)NC(=O)CSC[C@@H](C(=O)N[C@@H](CCN)C(=O)NCCCCCCCCCCC(=O)O)NC(=O)[C@H](CCCNC(N)=O)NC(=O)[C@H](C(C)C)NC(=O)[C@H](CC3CCCCC3)NC(=O)[C@H](CCN)NC(=O)[C@@H](CC(C)C)NC(=O)[C@H](CCCN)NC(=O)[C@H](C(C)C)NC(=O)[C@H](Cc3ccc(-c4ccccc4)cc3)NC(=O)[C@H](C(C)C)NC2=O)c1` [Compound 3291] ({CH2CO}-RY(Carboxymethyl)D[Phe(3-Me)]V[Bip]V[Orn][dL][Dab][Cha]V[Cit]C[Dab][Aun]-OH; thioether N-14) was 0.0061 µM; that for `Cc1cccc(C[C@@H]2NC(=O)[C@H](CC(=O)O)NC(=O)[C@H](Cc3ccc(OCC(=O)O)cc3)NC(=O)[C@H](CCCNC(=N)N)NC(=O)CSC[C@@H](C(=O)N[C@@H](CCN)C(=O)NCCCCCCCCCCC(=O)O)NC(=O)[C@H](CCCN)NC(=O)[C@H](C(C)C)NC(=O)[C@H](CC3CCCCC3)NC(=O)[C@H](CCN)NC(=O)[C@@H](CC(C)C)NC(=O)[C@H](CCCN)NC(=O)[C@H](C(C)C)NC(=O)[C@H](Cc3ccc(-c4ccccc4)cc3)NC(=O)[C@H](C(C)C)NC2=O)c1` [Compound 3292] ({CH2CO}-RY(Carboxymethyl)D[Phe(3-Me)]V[Bip]V[Orn][dL][Dab][Cha]V[Orn]C[Dab][Aun]-OH; thioether N-14) was 0.012 µM.

For the compound `Cc1cccc(C[C@@H]2NC(=O)[C@H](CC(=O)O)NC(=O)[C@H](Cc3ccc(OCC(=O)O)cc3)NC(=O)[C@H](CCCNC(=N)N)NC(=O)CSC[C@@H](C(=O)NCCOCCOCC(=O)N[C@@H](CCN)C(=O)NCCCCCCCCCCC(=O)O)NC(=O)[C@H](CCCCN)NC(=O)[C@H](C(C)C)NC(=O)[C@H](CC3CCCCC3)NC(=O)[C@H](CN)NC(=O)[C@@H](CC(C)C)NC(=O)[C@H](CCCN)NC(=O)[C@H](C(C)C)NC(=O)[C@H](Cc3ccc(-c4ccccc4)cc3)NC(=O)[C@H](C(C)C)NC2=O)c1` [Compound 3293] ({CH2CO}-RY(Carboxymethyl)D[Phe(3-Me)]V[Bip]V[Orn][dL][Dap][Cha]VKC[AEEA][Dab][Aun]-OH; thioether N-14), the IC50 was determined as 0.005 µM.

Consider `CC(C)C[C@H]1NC(=O)[C@H](CCCN)NC(=O)[C@H](C(C)C)NC(=O)[C@H](Cc2ccc(-c3ccccc3)cc2)NC(=O)[C@H](C(C)C)NC(=O)[C@H](Cc2c[nH]c3ccccc23)NC(=O)[C@H](CC(=O)O)NC(=O)[C@H](Cc2ccc(OCC(=O)O)cc2)NC(=O)[C@H](Cc2ccncc2)NC(=O)CSC[C@@H](C(=O)N[C@@H](CCN)C(=O)NCCCCCCCCCCC(=O)O)NC(=O)[C@H](CN)NC(=O)[C@H](C(C)C)NC(=O)[C@H](CC2CCCCC2)NC(=O)[C@H](CCN)NC1=O` [Compound 3294] ({CH2CO}-[4Pal]Y(Carboxymethyl)DWV[Bip]V[Orn][dL][Dab][Cha]V[Dap]C[Dab][Aun]-OH; thioether N-14), for which the IC50 turned out to be 0.0155 µM.

Take `Cc1cccc(C[C@@H]2NC(=O)[C@H](CC(=O)O)NC(=O)[C@H](Cc3c[nH]cn3)NC(=O)[C@H](CCCNC(=N)N)NC(=O)CSC[C@@H](C(=O)NCCOCCOCC(=O)N[C@@H](CCN)C(=O)NCCCCCCCCCCC(=O)O)NC(=O)[C@H](CO)NC(=O)[C@H](C(C)C)NC(=O)[C@H](CC3CCCCC3)NC(=O)[C@H](CCN)NC(=O)[C@@H](CC(C)C)NC(=O)[C@H](CCCN)NC(=O)[C@H](C(C)C)NC(=O)[C@H](Cc3ccc(-c4ccccc4)cc3)NC(=O)[C@H](C(C)C)NC2=O)c1` [Compound 3295] ({CH2CO}-RHD[Phe(3-Me)]V[Bip]V[Orn][dL][Dab][Cha]VSC[AEEA][Dab][Aun]-OH; thioether N-14): the IC50 turned out to be 0.0125 µM. The value for `Cc1cccc(C[C@@H]2NC(=O)[C@H](CC(=O)O)NC(=O)[C@H](Cc3c[nH]cn3)NC(=O)[C@H](CCCNC(=N)N)NC(=O)CSC[C@@H](C(=O)N[C@@H](CCCCN)C(=O)NCCCCCCCCCCC(=O)O)NC(=O)[C@H](CCCN)NC(=O)[C@H](C(C)C)NC(=O)[C@H](CC3CCCCC3)NC(=O)[C@H](CCN)NC(=O)[C@@H](CC(C)C)NC(=O)[C@H](CCCN)NC(=O)[C@H](C(C)C)NC(=O)[C@H](Cc3ccc(-c4ccccc4)cc3)NC(=O)[C@H](C(C)C)NC2=O)c1` [Compound 3296] ({CH2CO}-RHD[Phe(3-Me)]V[Bip]V[Orn][dL][Dab][Cha]V[Orn]CK[Aun]-OH; thioether N-14) was 0.0203 µM; that for `Cc1cccc(C[C@@H]2NC(=O)[C@H](CC(=O)O)NC(=O)[C@H](Cc3ccc(OCC(=O)O)cc3)NC(=O)[C@H](CCCNC(=N)N)NC(=O)CSC[C@@H](C(=O)N[C@@H](CCN)C(=O)NCCCCCCCCCCC(=O)O)NC(=O)[C@H](C(C)O)NC(=O)[C@H](C(C)C)NC(=O)[C@H](CC3CCCCC3)NC(=O)[C@H](CCN)NC(=O)[C@@H](CC(C)C)NC(=O)[C@H](CCCN)NC(=O)[C@H](CCCNC(N)=O)NC(=O)[C@H](Cc3ccc(-c4ccccc4)cc3)NC(=O)[C@H](C(C)C)NC2=O)c1` (stereo partly drawn) [Compound 3301] ({CH2CO}-RY(Carboxymethyl)D[Phe(3-Me)]V[Bip][Cit][Orn][dL][Dab][Cha]V[Thr(3ξ)]C[Dab][Aun]-OH; thioether N-14) was 0.0174 µM. As for `Cc1cccc(C[C@@H]2NC(=O)[C@H](CC(=O)O)NC(=O)[C@H](Cc3ccc(OCC(=O)O)cc3)NC(=O)[C@H](CCCCNC(=N)N)NC(=O)CSC[C@@H](C(=O)N[C@@H](CCN)C(=O)NCCCCCCCCCCC(=O)O)NC(=O)[C@H](C(C)O)NC(=O)[C@H](C(C)C)NC(=O)[C@H](CC3CCCCC3)NC(=O)[C@H](CCN)NC(=O)[C@@H](CC(C)C)NC(=O)[C@H](CCCN)NC(=O)[C@H](CCCNC(N)=O)NC(=O)[C@H](Cc3ccc(-c4ccccc4)cc3)NC(=O)[C@H](C(C)C)NC2=O)c1` (stereo partly drawn) [Compound 3302] ({CH2CO}-[hArg]Y(Carboxymethyl)D[Phe(3-Me)]V[Bip][Cit][Orn][dL][Dab][Cha]V[Thr(3ξ)]C[Dab][Aun]-OH; thioether N-14), the figure is 0.0141 µM; as for `Cc1cccc(C[C@@H]2NC(=O)[C@H](CC(=O)O)NC(=O)[C@H](Cc3ccc(OCC(=O)O)cc3)NC(=O)[C@H](CCCNC(=N)N)NC(=O)CSC[C@@H](C(=O)N[C@@H](CCN)C(=O)NCCCCCCCCCCC(=O)O)NC(=O)[C@H](C(C)O)NC(=O)[C@H](C(C)C)NC(=O)[C@H](CC3CCCCC3)NC(=O)[C@H](CCN)NC(=O)[C@@H](CC(C)C)NC(=O)[C@H](CCCN)NC(=O)[C@H](CCCN)NC(=O)[C@H](Cc3ccc(-c4ccccc4)cc3)NC(=O)[C@H](C(C)C)NC2=O)c1` (stereo partly drawn) [Compound 3303] ({CH2CO}-RY(Carboxymethyl)D[Phe(3-Me)]V[Bip][Orn][Orn][dL][Dab][Cha]V[Thr(3ξ)]C[Dab][Aun]-OH; thioether N-14), 0.0151 µM; as for `Cc1cccc(C[C@@H]2NC(=O)[C@H](CC(=O)O)NC(=O)[C@H](Cc3ccc(OCC(=O)O)cc3)NC(=O)[C@H](CCCNC(=N)N)NC(=O)CSC[C@@H](C(=O)N[C@@H](CCN)C(=O)NCCCCCCCCCCC(=O)O)NC(=O)[C@H](C(C)O)NC(=O)[C@H](C(C)C)NC(=O)[C@H](CC3CCCCC3)NC(=O)[C@H](CCN)NC(=O)[C@@H](CC(C)C)NC(=O)[C@H](CCCNC(N)=O)NC(=O)[C@H](CCCN)NC(=O)[C@H](Cc3ccc(-c4ccccc4)cc3)NC(=O)[C@H](C(C)C)NC2=O)c1` (stereo partly drawn) [Compound 3304] ({CH2CO}-RY(Carboxymethyl)D[Phe(3-Me)]V[Bip][Orn][Cit][dL][Dab][Cha]V[Thr(3ξ)]C[Dab][Aun]-OH; thioether N-14), 0.0142 µM. The value for `Cc1cccc(C[C@@H]2NC(=O)[C@H](CC(=O)O)NC(=O)[C@H](Cc3ccc(OCC(=O)O)cc3)NC(=O)[C@H](CCCNC(=N)N)NC(=O)CSC[C@@H](C(=O)N[C@@H](CCN)C(=O)NCCCCCCCCCCC(=O)O)NC(=O)[C@H](CCCNC(N)=O)NC(=O)[C@H](C(C)C)NC(=O)[C@H](CC3CCCCC3)NC(=O)[C@H](CCN)NC(=O)[C@@H](CC(C)C)NC(=O)[C@H](CCCN)NC(=O)[C@H](CCC(N)=O)NC(=O)[C@H](Cc3ccc(-c4ccccc4)cc3)NC(=O)[C@H](C(C)C)NC2=O)c1` [Compound 3305] ({CH2CO}-RY(Carboxymethyl)D[Phe(3-Me)]V[Bip]Q[Orn][dL][Dab][Cha]V[Cit]C[Dab][Aun]-OH; thioether N-14) was 0.0065 µM.
